Measurements from patent US7550582B2, “Polyamide nucleic acid derivatives and agents, and processes for preparing them” (sanofi-aventis Deutschland GmbH, priority 2000, dated 2009).

Experiments:
complementary DNA = assay: Determining the melting temperatures (complementary DNA); format: binding; settings: for Tm (DNA): 140 mM KCl, 10 mM sodium dihydrogen phosphate, 0.1 mM EDTA (pH 7.4), oligomer 0.5 to 1 OD260 per ml; for degree of binding towards complementary DNA and RNA compared with the uncharged PNA (reference substance): melting temperature experiment
Method: (§1) The melting temperatures were determined using an HP 8452A diode-array spectrophotometer, an HP 89090A Peltier element and HP Temperature Control Software Rev. B5.1 (from Hewlett Packard). Measurements were taken in 0.5° C./min steps in 140 mM KCl, 10 mM sodium dihydrogen phosphate, 0.1 mM EDTA (pH 7.4) as the buffer. The oligomer concentration was from 0.5 to 1 OD260 per ml.

complementary RNA = assay: Determining the melting temperatures (complementary RNA); format: binding; settings: 140 mM KCl, 10 mM sodium dihydrogen phosphate, 0.1 mM EDTA (pH 7.4); oligomer 0.5 to 1 OD260 per ml
Method: as §1

[1] = test system: REH cells (human pre-B leukemia cells, DSM ACC 22); assay: Inhibiting cell proliferation; format: cell-based; settings: 10 μM, after >4 days of incubation
Method: The sequence of PNA-6 is directed against the translation start of the Ha-ras mRNA. REH cells (human pre-B leukemia cells, DSM ACC 22) or A549 tumor cells were cultured, at 37° C. and under 5% CO2, in OptiMEM (Gibco BRL) containing 10% fetal calf serum (FCS, GIBCO-BRL). The cell density for the assay was approx. 1×10^6/ml. The PNA-6 (10 μM) was incubated with the cells in 24-well plates. After incubating at 37° C. and under 5% CO2 for 96 hours, the cell density was determined. Mean values for the cell density were determined from 3 individual wells at a given PNA concentration. […] After >4 days of incubation, the inhibition brought about by PNA-6 was greater than that brought about by a corresponding phosphorothioate oligonucleotide.

COS cells = assay: Determining cell uptake after fluorescence labeling; format: cell-based; settings: PNA solution 10 μM, 37° C., examined after 2, 4 and 16 hours
Method: COS cells were allowed to grow to confluence in Dulbecco's MEM, which was supplemented with 10% FCS, in 5 cm Petri dishes. The cells were washed twice with serum-free DMEM. An area of approx. 1 cm^2 was scratched out in the middle of the Petri dish using a sterile needle. The PNA solution (10 μM) under investigation was applied in this area. The dish was incubated at 37° C. under a CO2 atmosphere. After 2, 4 and 16 hours, the cells were examined by fluorescence microscopy. For this, the cells were washed four times with serum-free DMEM, covered with a cover slip, and evaluated under the fluorescence microscope or by phase contrast. PNA-5 and PNA-6 were examined by fluorescence microscopy.

| degree of binding towards complementary DNA and RNA compared with the uncharged PNA (reference substance) (complementary DNA) | Substance | Tm (DNA) (complementary DNA) | Tm (RNA) (complementary RNA) | inhibition of proliferation compared with a corresponding phosphorothioate oligonucleotide [1] | cell uptake by fluorescence microscopy, compared with the PNA with no hexadecyl radical (COS cells) |
| --- | --- | --- | --- | --- | --- |
| – | Ac-HN-tat tcc gtc at-hex [Reference, reference compound] | 41.9 °C | 56.6 °C | – | – |
| equally good or better degree of binding | C16-p-t(oeg) at tcc gtc at-aminohexyl-p-fluorescein [PNA-6] | 44.1 °C | 56.9 °C | greater | taken up more efficiently |
| equally good or better degree of binding | p-t(oeg) at tcc gtc at-aminohexyl-p-fluorescein [PNA-5] | 41.8 °C | 56.9 °C | – | – |
